Reference: US12595246B2, “Crystalline and amorphous forms of N-(5-((4-ethylpiperazin-1-yl)methyl)pyridine-2-yl)-5-fluoro-4-(3-isopropyl-2-methyl-2H-indazol-5-yl)pyrimidin-2-amine and its salts, and preparation methods and therapeutic uses thereof” (BETA PHARMA, INC., priority 2019, dated 2026)

Test: Dynamic vapor sorption (DVS) isotherm analysis, with XRPD before and after DVS
Assay type: physicochemical
Settings: for change of crystalline form after DVS (XRPD): XRPD before and after DVS; for hygroscopicity rating by DVS isotherm analysis: rating in words, based on uptake at 80% RH

| Structure (SMILES) | change of crystalline form after DVS (XRPD) | hygroscopicity by DVS isotherm analysis (uptake at 80% RH) [%] | hygroscopicity rating by DVS isotherm analysis |
| --- | --- | --- | --- |
| CCN1CCN(Cc2ccc(Nc3ncc(F)c(-c4cc(F)c5nc(C)n(C(C)C)c5c4)n3)nc2)CC1.Cc1ccc(S(=O)(=O)O)cc1 | no change of crystalline form | 1.67 | slightly hygroscopic |
| CCN1CCN(Cc2ccc(Nc3ncc(F)c(-c4cc(F)c5nc(C)n(C(C)C)c5c4)n3)nc2)CC1.Cl [1⋅HCl (1:1; Form A)] | no change of crystalline form | 3.64 | hygroscopic |
| CCN1CCN(Cc2ccc(Nc3ncc(F)c(-c4cc(F)c5nc(C)n(C(C)C)c5c4)n3)nc2)CC1.O=S(=O)(O)O [Compound 1⋅H2SO4 (1:1; Form A)] | some change of crystalline form | 26.42 | very hygroscopic |
| CCN1CCN(Cc2ccc(Nc3ncc(F)c(-c4cc(F)c5nc(C)n(C(C)C)c5c4)n3)nc2)CC1.O=P(O)(O)O [Compound 1⋅H3PO4 (1:1)] | some change of crystalline form | 3.16 | hygroscopic |
| CCN1CCN(Cc2ccc(Nc3ncc(F)c(-c4ccc5nn(C)c(C(C)C)c5c4)n3)nc2)CC1 [freebase of 1 (Form D)] | no change of crystalline form | 5.13 | hygroscopic |
